Like-named read-outs stand apart in the source and are kept apart here.
What was measured:
[1] = molecular target: T1, wild-type Epidermal Growth Factor Receptor (EGFR) (Homo sapiens, UniProt P00533); assay: WT-EGFR Kinase Assay (TR-FRET, 2 mM ATP); format: biochemical
T1 construct: a fragment of human EGFR (amino acids R669 to A1210); made in house; host or cells: Sf9 insect cells
Procedure, shortened: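 GST-fused human EGFR fragment (R669-A1210) from Sf9 cells, typically 7.6 pg/μL, pre-incubated with compound 15 min at 22° C in Hepes pH 7.0 buffer with MgCl2, DTT and vanadate; biotinylated peptide substrate. After EDTA stop, phosphopeptide detected by TR-FRET (anti-phosphotyrosine Tb-cryptate/streptavidin-XL665), 665/620 nm emission ratio.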

[2] = molecular target: T2, full-length human CSNK1A1 (Homo sapiens, UniProt P48729); assay: CSNK1A1 Assay 2 (ADP-Glo, 1 μM ATP, substrate biotin-Ahx-KRRRAL-pS-VASLPGL); format: biochemical; conditions: Table 3, read-out: CSNK1A1 Assay 2 IC50 [mol/l] (median)
T2 construct: N-terminal Glutathion-S-Transferase (GST) and full-length human CSNK1A1; purchased Life Technologies PV4174; host or cells: baculovirus infected insect cells
Procedure, shortened: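 Activity read as ADP generated (ADP-Glo luciferase luminescence, 1 h detection steps at 22 °C). Enzyme was insect-cell-expressed GST–full-length human CSNK1A1, compound-preincubated 15 min before reaction with phosphopeptide substrate and 1 μM ATP in 50 mM HEPES pH 7.5, 10 mM MgCl2.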

[3] = EGFR Wildtyp 2 mM ATP IC50 [mol/l] (median), Table 4
[4] = read-out: EGFR Wildtyp 2 mM ATP IC50 [mol/l] (median), Table 4

T2 sequence (P48729 whole entry): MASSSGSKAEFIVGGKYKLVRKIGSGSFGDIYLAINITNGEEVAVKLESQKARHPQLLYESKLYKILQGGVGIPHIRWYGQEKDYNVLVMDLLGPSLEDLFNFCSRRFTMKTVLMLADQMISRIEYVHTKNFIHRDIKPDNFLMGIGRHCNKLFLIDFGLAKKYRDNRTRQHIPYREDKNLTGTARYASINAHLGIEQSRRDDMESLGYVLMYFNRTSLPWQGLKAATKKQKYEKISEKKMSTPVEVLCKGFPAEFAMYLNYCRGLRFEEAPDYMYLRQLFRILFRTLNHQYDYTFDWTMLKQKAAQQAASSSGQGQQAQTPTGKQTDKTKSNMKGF
T1 sequence (P00533 669-1210): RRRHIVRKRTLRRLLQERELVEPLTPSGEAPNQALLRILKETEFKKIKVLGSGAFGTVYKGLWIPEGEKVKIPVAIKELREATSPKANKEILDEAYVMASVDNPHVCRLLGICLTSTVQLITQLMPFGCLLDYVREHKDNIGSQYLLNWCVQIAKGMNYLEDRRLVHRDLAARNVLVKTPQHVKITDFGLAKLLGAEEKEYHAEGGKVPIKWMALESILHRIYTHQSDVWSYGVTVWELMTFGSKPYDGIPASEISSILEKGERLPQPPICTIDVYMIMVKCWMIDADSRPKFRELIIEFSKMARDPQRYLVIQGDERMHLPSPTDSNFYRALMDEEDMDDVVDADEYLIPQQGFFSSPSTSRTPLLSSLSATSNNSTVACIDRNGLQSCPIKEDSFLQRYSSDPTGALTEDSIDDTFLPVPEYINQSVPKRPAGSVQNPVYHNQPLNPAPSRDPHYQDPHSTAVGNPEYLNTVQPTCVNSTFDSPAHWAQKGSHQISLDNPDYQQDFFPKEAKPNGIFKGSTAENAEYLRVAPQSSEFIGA

Compound	IC50 [1, 3]	IC50 [2]	IC50 [1, 4]
O=C(Nc1cc(-c2[nH]c3cc(F)cnc3c2-c2ccccn2)ccn1)C(CC(F)F)c1ccc(F)cc1 (racemic) [Example 16, 4,4-difluoro-2-(4-fluorophenyl)-N-{4-[6-fluoro-3-(pyridin-2-yl)-1H-pyrrolo[3,2-b]pyridin-2-yl]pyridin-2-yl}butanamide]	> 20000 nM	3.39 nM	
O=C(Nc1cc(-c2[nH]c3ccc(F)nc3c2-c2cc(F)ccn2)ccn1)C(CC(F)F)c1ccc(F)cc1 (racemic) [Example 95, (2RS)-4,4-difluoro-N-{4-[5-fluoro-3-(4-fluoropyridin-2-yl)-1H-pyrrolo[3,2-b]pyridin-2-yl]pyridin-2-yl}-2-(4-fluorophenyl)butanamide]	> 20000 nM	5.62 nM	
O=C(Nc1cc(-c2[nH]c3c(Cl)ccnc3c2-c2ccccn2)ccn1)C(CC(F)F)c1ccc(F)cc1 (racemic) [Example 49, (2RS)—N-{4-[7-chloro-3-(pyridin-2-yl)-1H-pyrrolo[3,2-b]pyridin-2-yl]pyridin-2-yl}-4,4-difluoro-2-(4-fluorophenyl)butanamide]	> 20000 nM	3.64 nM	
Cc1cnc2c(-c3ccccn3)c(-c3ccnc(NC(=O)C(CC(F)F)c4ccc(F)cc4)c3)[nH]c2c1 (racemic) [Example 7, 4,4-difluoro-2-(4-fluorophenyl)-N-{4-[6-methyl-3-(pyridin-2-yl)-1H-pyrrolo[3,2-b]pyridin-2-yl]pyridin-2-yl}butanamide]	> 20000 nM	2.76 nM	
CC(C)(O)c1cc(F)nc2c(-c3ccccn3)c(-c3ccnc(NC(=O)C(CC(F)F)c4ccc(F)cc4)c3)[nH]c12 (single isomer, unassigned) [Example 100, (2R or S)-4,4-difluoro-N-{4-[5-fluoro-7-(2-hydroxypropan-2-yl)-3-(pyridin-2-yl)-1H-pyrrolo[3,2-b]pyridin-2-yl]pyridin-2-yl}-2-(4-fluorophenyl)butanamide]		33.6 nM	> 20000 nM
O=C(Nc1cc(-c2[nH]c3c(OCC(F)(F)F)ncnc3c2-c2ccccn2)ccn1)C(CC(F)(F)F)c1ccc(F)cc1 (racemic) [Example 125, (2RS)-4,4,4-trifluoro-2-(4-fluorophenyl)-N-{4-[7-(pyridin-2-yl)-4-(2,2,2-trifluoroethoxy)-5H-pyrrolo[3,2-d]pyrimidin-6-yl]pyridin-2-yl}butanamide]	> 20000 nM	14.8 nM	
O=C(Nc1cc(-c2[nH]c3c(C4CCCO4)cc(F)nc3c2-c2ccccn2)ccn1)C(CC(F)F)c1ccc(F)cc1 (single isomer, unassigned) [Example 118, (2R or S)-4,4-difluoro-N-(4-{5-fluoro-7-[(2R or S)-oxolan-2-yl]-3-(pyridin-2-yl)-1H-pyrrolo[3,2-b]pyridin-2-yl}pyridin-2-yl)-2-(4-fluorophenyl)butanamide]	> 20000 nM	66.9 nM	
O=C(Nc1cc(-c2[nH]c3nccnc3c2-c2ccccn2)ccn1)C(CC(F)(F)F)c1ccc(F)cc1 (single isomer, unassigned) [Example 121, (2R or S)-4,4,4-trifluoro-2-(4-fluorophenyl)-N-{4-[7-(pyridin-2-yl)-5H-pyrrolo[2,3-b]pyrazin-6-yl]pyridin-2-yl}butanamide]		29.4 nM	> 20000 nM
O=C(Nc1cc(-c2[nH]c3c(OCC(F)(F)F)ncnc3c2-c2ccccn2)ccn1)C(CC(F)F)c1ccc(F)cc1 (racemic) [Example 122, (2RS)-4,4-difluoro-2-(4-fluorophenyl)-N-{4-[7-(pyridin-2-yl)-4-(2,2,2-trifluoroethoxy)-5H-pyrrolo[3,2-d]pyrimidin-6-yl]pyridin-2-yl}butanamide]	> 20000 nM	7.69 nM	
O=C(Nc1cc(-c2[nH]c3cncnc3c2-c2ccccn2)ccn1)C(CC(F)F)c1ccc(F)cc1 (single isomer, unassigned; (-)) [Example 14, (−)-4,4-difluoro-2-(4-fluorophenyl)-N-{4-[7-(pyridin-2-yl)-5H-pyrrolo[3,2-d]pyrimidin-6-yl]pyridin-2-yl}butanamide]	> 20000 nM	16.4 nM	
O=C(Nc1cc(-c2[nH]c3ccc(F)nc3c2-c2ccc(F)cn2)ccn1)C(CC(F)F)c1ccc(F)cc1 (single isomer, unassigned; (-)) [Example 110, (−)-4,4-difluoro-N-{4-[5-fluoro-3-(5-fluoropyridin-2-yl)-1H-pyrrolo[3,2-b]pyridin-2-yl]pyridin-2-yl}-2-(4-fluorophenyl)butanamide]		47.6 nM	> 20000 nM
O=C(Nc1cc(-c2[nH]c3cncnc3c2-c2ccccn2)ccn1)C(CC(F)F)c1ccc(F)cc1 (racemic) [Example 13, 4,4-difluoro-2-(4-fluorophenyl)-N-{4-[7-(pyridin-2-yl)-5H-pyrrolo[3,2-d]pyrimidin-6-yl]pyridin-2-yl}butanamide]	> 20000 nM	4.66 nM	

— patent publication US12692261B2, “Substituted heterocyclic compounds and therapeutic uses thereof” (Bayer Aktiengesellschaft, priority 2020, dated 2026)
